Data taken from patent US10556922B2, “Crystalline and amorphous forms of 17-alpha-hydroxyprogesterone caproate” (AMAG Pharmaceuticals, Inc., priority 2015, dated 2020).
≈ marks a conversion by molar mass, not a printed value. Where two headings read alike, the source gives them in different places.

Key:
[1] = Solubility of crystalline HPC in organic solvents; type: physicochemical; conditions: organic solvent or mixture, 25° C.
[2] = Solution-mediated transformation studies (relative physical stability of Form A and Form B versus temperature); type: physicochemical
Experimental: Solution-mediated transformation studies were conducted to establish the relative physical stability of Form A and Form B versus temperature. Excess solid was suspended in a slurry using various solvents, including mixtures of benzyl benzoate and castor oil. After equilibration times of 1 day to two weeks, the excess solid was filtered and analyzed by powder x-ray diffraction to determine the crystalline form.

Row | Compound | solubility ([1]; ethanol, read-out: solubility in ethanol) [mg/mL] | solubility ([1]; ethyl acetate, read-out: solubility in ethyl acetate) [mg/mL] | solubility ([1]; isopropanol, read-out: solubility in isopropanol) [mg/mL] | solubility ([1]; methanol, read-out: solubility in methanol) [mg/mL] | relative physical stability ([2]; above 35° C.) | relative physical stability ([2]; below 27° C.) | relative physical stability ([2]; below room temperature, additional studies) | physical stability on storage ([2]; storage temperatures of room temperature (20-25° C.) or below (refrigeration))
1 | CCCCCC(=O)O[C@]1(C(C)=O)CC[C@H]2[C@@H]3CCC4=CC(=O)CC[C@]4(C)[C@H]3CC[C@@]21C [Form A, 17-α-hydroxyprogesterone caproate] | ~118 (≈ 275 mM) | ~419 (≈ 978 mM) | ~91 (≈ 212 mM) | ~142 (≈ 331 mM) | more stable (less soluble) | – | – | –
2 | CCCCCC(=O)O[C@]1(C(C)=O)CC[C@H]2[C@@H]3CCC4=CC(=O)CC[C@]4(C)[C@H]3CC[C@@]21C [Form B, 17-α-hydroxyprogesterone caproate] | – | – | – | – | – | more stable (less soluble) | likely to be more stable | physically stable polymorph
